Assay results as given in patent publication US20220280594A1, “APPLICATION OF POLYPEPTIDE OR DERIVATIVE THEREOF” (CHENGDU HUITAI BIOMEDICINE CO., LTD., priority 2019, published 2022).
Ends that are not written are not given here. PEG = not defined here

Tested on: human lung cancer cells (A549) subcutaneous xenograft
Assay: lung cancer subcutaneous xenograft animal model, intratumoral injection
Type: in vivo, mice (BALB/c-nu/nu)
Details: intratumoral 5 mg/kg once every other day, 20 days; for Weight of tumor (g) (mean ± SD): control 1.92 ± 0.13; for Volume of tumor (mm^3) (mean ± SD): control 1700.16 ± 305.72
Procedure: Experimental animals: 4-6 weeks old female immunodeficiency mice (BALB/c-nu/nu, Beijing Vital River Laboratory Animal Technology Co., Ltd.).
Subcutaneous xenograft animal model. The number of cells inoculated subcutaneously vin mice was about 2×10^6/200 μL. When the volume of the subcutaneous tumor was greater than 100 mm^3, the mice were randomly divided into groups and subjected to treatment. When the mass volume of the tumors in model control group reached 2000 mm^3 or the animal dies, the treatment ended. The animals were dissected, the tumors were taken out, and the weight and volume of the tumors were measured. During the period of the entire experiment, the mice were observed and the body weight was measured every other day.
The method used for the drug efficacy test in the animal model of the subcutaneous xenograft derived from lung cancer cells was as described in Example 5. The tumor cells were human lung cancer cells (A549), and the route of administration was intratumoral injection. There were two groups: the model control group and the polypeptide or its derivative treatment group (N1-N12). The drug dosage of the treatment group was 5 mg/kg, once every other day and the treatment time was 10 days.
The procedure of the efficacy test in this example, route and dosage of administration were the same as in Example 9. The peptides used in the experiment were N13-N32. The treatment time was 20 days.

Substance | Weight of tumor (g) (mean ± SD) | Volume of tumor (mm^3) (mean ± SD)
N19: SEQ ID NO: 1 with deletion of positions 1-5 and 15-18 and addition of two amino acids at the carboxyl terminal (LAKENVTQDRC) | 0.81 ± 0.29 | 963.18 ± 185.31
N20: SEQ ID NO: 1 with addition of one amino acid at the amino terminal and deletion of position 18 (RYRVRFLAKENVTQDAED) | 0.89 ± 0.22 | 1037.56 ± 256.6
N26: SEQ ID NO: 1 with substitution A15R, addition of one amino acid at the amino terminal and one at the carboxyl terminal (FYRVRFLAKENVTQDREDNC) | 0.8 ± 0.22 | 1053.55 ± 175.83
N22: SEQ ID NO: 1 with substitution A7R, deletion of three amino acids at the amino terminal and of positions 15-18 (RFLRKENVTQD) | 0.83 ± 0.33 | 835.73 ± 184.67
N16: SEQ ID NO: 1 with substitution A7R and addition of one amino acid at the carboxyl terminus (YRVRFLRKENVTQDAEDNC) | 0.83 ± 0.27 | 897.27 ± 176.16
N28: SEQ ID NO: 1 with deletion of positions 1-2 and 18 and PEG modification at the amino terminal ({PEG}-VRFLAKENVTQDAED; reading uncertain) | 0.81 ± 0.24 | 1055.02 ± 222.45
N13: SEQ ID NO: 1 with deletion of positions 15-18 and positions 1-5 (LAKENVTQD) | 1.09 ± 0.09 | 986.7 ± 261.02
N24: SEQ ID NO: 1 with substitution A7R, deletion of positions 1-2 and of position 18 (VRFLRKENVTQDAED) | 0.83 ± 0.29 | 908.37 ± 256.24
N31: SEQ ID NO: 1 with deletion of positions 3, 4, 11 and 15-18 and PEG modification at the carboxyl terminal (YRFLAKENTQD-{PEG}; reading uncertain) | 0.71 ± 0.16 | 900.88 ± 255.61
N29: SEQ ID NO: 1 with deletion of positions 1-5 and 15-18 and PEG modification at the amino terminal ({PEG}-LAKENVTQD; reading uncertain) | 0.82 ± 0.22 | 949 ± 227.4
N14: SEQ ID NO: 1 with deletion of positions 1-5 and addition of one amino acid at the carboxyl terminal (LAKENVTQDAEDNC) | 1.09 ± 0.29 | 913.68 ± 219.62
N23: SEQ ID NO: 1 with substitution A7R, deletion of position 11 and of positions 15-18 (YRVRFLRKENTQDAED) | 0.83 ± 0.29 | 838.73 ± 218
N21: SEQ ID NO: 1 with deletion of positions 1-5 and 15-18 and addition of one amino acid at the amino terminal (SLAKENVTQD) | 0.9 ± 0.28 | 967.35 ± 247.89
N17: SEQ ID NO: 1 with addition of two amino acids to the carboxyl terminal (YRVRFLAKENVTQDAEDNCT) | 0.76 ± 0.26 | 893.18 ± 234.75
N30: SEQ ID NO: 1 with deletion of positions 1-5 and 15-18 and PEG modification at the carboxyl terminal (LAKENVTQD-{PEG}; reading uncertain) | 0.9 ± 0.22 | 913.9 ± 204.07
N25: SEQ ID NO: 1 with substitution N18R and addition of two amino acids at the carboxyl terminal (YRVRFLAKENVTQDAEDRCT) | 0.71 ± 0.18 | 958.87 ± 351.9
N15: SEQ ID NO: 1 with substitution N18R and addition of one amino acid to the carboxyl terminal (YRVRFLAKENVTQDAEDRC) | 0.63 ± 0.13 | 793.32 ± 173.3
N32: SEQ ID NO: 1 with deletion of positions 1-3, addition of one amino acid and PEG modification at the carboxyl terminal (RFLAKENVTQDAEDNC-{PEG}; reading uncertain) | 0.88 ± 0.25 | 984.03 ± 184.86
N27: SEQ ID NO: 1 with addition of one amino acid at the carboxyl terminal and PEG modification at the carboxyl terminal (YRVRFLAKENVTQDAEDNC-{PEG}; reading uncertain) | 0.95 ± 0.22 | 1059.51 ± 161.22
N18: SEQ ID NO: 1 with addition of one amino acid at the amino terminal and one at the carboxyl terminal (FYRVRFLAKENVTQDAEDNC) | 0.75 ± 0.26 | 969.37 ± 243.04
